Experimental data: patent US9440988B2, “Regulators of the hedgehog pathway, compositions and uses related thereto” (John Hopkins University School of Medicine, priority 1008, dated 2016)

Key:
Shh pathway = experiment: Gli-luciferase reporter assay for Shh signaling in transiently transfected NIH-3T3 cells; assay type: cell-based, mouse; conditions: ShhNp-treated NIH-3T3 cells (FIG. 2C: ShhNp 4 nM, cyclopamine 5 μM, 2 d)
activated Smo (SmoA1) = experiment: Gli-luciferase reporter activity in cells expressing activated Smo (SmoA1-LIGHT); assay type: cell-based, mouse
Source text: FIG. 2 relates to a sensitive assay for Shh signaling in NIH-3T3 cells. (A) Purification of cholesterol- and palmitate-modified mouse Sonic hedgehog signaling domain ShhNp. Detergent-insoluble proteolipid complexes were isolated from 293 cells expressing full-length Shh (M. K. Cooper, J. A. Porter, K. E. Young, P. A. Beachy, Science 280, 1603 (1998)), and ShhNp was purified to apparent homogeneity by immunoaffinity chromatography. […] We therefore used the detergent insolubility of cholesterol-modified ShhN and affinity chromatography to purify the processed ShhN protein (ShhNp) from a human 293 cell line engineered to express the full length mouse Shh construct. Detergent-insoluble complexes (DIGs) were isolated as described by Brown and Rose (1992), with the following modifications. Cells from a 150 mm dish were lysed and collected in 2 mL of lysis solution (10 mM NaHPO4, pH 6.5, 150 mM NaCl, 0.5 mM PMSF, 1% Triton X-100, 2 μg/ml Pepstatin A, 10 μg/ml leupeptin, 5 μg/ml aprotinin, 2 μg/ml E64) at 4° C. […] Fold induction of the reporter (% of maximum is relative to equally dense Shh-LIGHT control culture) and cell densities (% of maximum Renilla luciferase activity) were measured at the end of the experiment. […]

[1] = test system: P2A6 fibrosarcoma cells derived from Ptc−/− embryonic fibroblasts; experiment: Subcutaneous P2A6 fibrosarcoma tumors in female nude mice; assay type: in vivo, mouse; conditions: for differentiation status of tumors: compared with the tomatidine-treated control, FIG. 7; for Ki-67 proliferation rate: tumors after four days of treatment, blinded pathologist
Experimental: Female nude mice were injected subcutaneously with 5 million P2A6 fibrosarcoma cells derived from Ptc−/− embryonic fibroblasts. Three weeks after injection, each mouse had developed a discrete subcutaneous tumor. Each tumor was measured and treatments were initiated on the same day. […] The mice were killed, and tumors were measured and dissected out for histopathologic analysis. Tumor volumes were calculated as the product of length x width. The samples were paraformaldehyde-fixed and paraffin-embedded, and slides were cut for hematoxylin and eosin staining and for immunohistochemistry with polyclonal antibodies against the proliferation marker Ki-67 (Novacastra NCL-Ki67p; assay performed according to manufacturer's directions).

Sonic hedgehog signaling = experiment: Clonal NIH-3T3 line with stably integrated Shh-responsive luciferase reporter (Shh-LIGHT/Shh-LIGHT2), inhibition of Sonic hedgehog induction; assay type: cell-based, mouse
Source text: FIG. 2 relates to a sensitive assay for Shh signaling in NIH-3T3 cells. (A) Purification of cholesterol- and palmitate-modified mouse Sonic hedgehog signaling domain ShhNp. Detergent-insoluble proteolipid complexes were isolated from 293 cells expressing full-length Shh (M. K. Cooper, J. A. Porter, K. E. Young, P. A. Beachy, Science 280, 1603 (1998)), and ShhNp was purified to apparent homogeneity by immunoaffinity chromatography. […] We therefore used the detergent insolubility of cholesterol-modified ShhN and affinity chromatography to purify the processed ShhN protein (ShhNp) from a human 293 cell line engineered to express the full length mouse Shh construct. Detergent-insoluble complexes (DIGs) were isolated as described by Brown and Rose (1992), with the following modifications. Cells from a 150 mm dish were lysed and collected in 2 mL of lysis solution (10 mM NaHPO4, pH 6.5, 150 mM NaCl, 0.5 mM PMSF, 1% Triton X-100, 2 μg/ml Pepstatin A, 10 μg/ml leupeptin, 5 μg/ml aprotinin, 2 μg/ml E64) at 4° C. […] Low-density, flocculent material was collected (from original position of 18.125% step), diluted 5-fold in 10 mM NaHPO4, pH 6.5, 150 mM NaCl and harvested by centrifugation at 20,000×g for 15 min (all at 4° C.). […] Mass standards migrated as indicated. […] NIH-3T3 cells cotransfected with Gli-luc reporter and TK promoter-driven Renilla luciferase control were treated with the indicated concentrations of ShhNp for 2 days. Confluent cultures of NIH-3T3 cells were plated at 1:6 dilution to 24 or 96-well plates. On the following day, the cells were transfected with renilla luciferase (pRL-TK or pRL-SV40; Clontech) or β-galactosidase transfection control (10% w/w DNA), Gli-Luc reporter (40%) and the constructs indicated (50%) using Fugene 6 (Roche) transfection reagent (250 ng (24 well plate) or 100 ng (96 well plate) DNA/well, 3:1 ratio (v/w) of reagent to DNA). […] Firefly and Renilla luciferase and β-galactosidase activities were assayed from the cell lysates by luminometry using dual luciferase (Promega) and Galacto-Light (Tropix) kits, respectively. Luciferase activities are normalized relative to control; a representative experiment is shown. […] Error bars indicate one standard deviation. […] Cultures of Shh-LIGHT (open boxes) or SmoA1-LIGHT (filled diamonds) cells were plated to 96-well plates in a series of twofold dilutions. The NIH-3T3 cell clone Shh-LIGHT and Shh-LIGHT2 stably incorporating the Gli-luc reporter and TK-renilla vectors were established by cotransfection with a vector encoding G418 resistance (pSV-Neo), followed by selection with G418 and cell cloning. Subsequently, a clonal subline of Shh-LIGHT expressing activated Smo (SmoA1-LIGHT) was established using an expression vector that allows hygromycin selection (pcDNA3.1+ hygro; Invitrogen). […] The Shh-LIGHT cells were treated with 4 nM ShhNp, and Gli-luciferase reporter activity was assayed after 24 h. Fold induction of the reporter (% of maximum is relative to equally dense Shh-LIGHT control culture) and cell densities (% of maximum Renilla luciferase activity) were measured at the end of the experiment. Error bars indicate one standard deviation (quadruplicate wells).
(§1) Relative reporter activity is normalized to maximum. […] Error bars in A and B indicate one standard deviation.

[2] = test system: Shh pathway activity in Ptc1−/− cells
Source text: Since β-galactosidase is expressed from the Ptc1 locus, its expression reflects the activity of the Shh pathway. A representative experiment is shown. […] Cultures of NIH-3T3 cells were transfected (in triplicate) with Gli-luciferase reporter, TK-Renilla luciferase control vector and Smo or SmoA1 expression vectors. Smo DNA was used at 50% w/w, and SmoA1 at 50%, 5%, and 0.5% w/w. […] Error bars indicate one standard deviation. The leftmost four bars, shown for comparison, are as in FIG. 2C. […] NIH-3T3 cells were transfected with Gli-luc reporter, TK-Renilla, Ptc1CTD and SmoA1 expression vectors (Ptc to Smo DNA ratio=9). […] A representative experiment is shown. […] NIH-3T3 cells were cotransfected with Gli-luc reporter, β-galactosidase transfection control, and a control vector or an expression vector encoding the indicated Smo-Renilla luciferase fusion protein. In the representative experiment shown, Shh pathway activity and Smo protein levels were measured as firefly and Renilla luciferase activities relative to β-galactosidase, respectively.
as §1
Mice lacking function of Ptc1 display widespread activation of targets of Shh signaling, including of the Ptc1 gene itself (L. V. Goodrich, L. Milenkovic, K. M. Higgins, M. P. Scott, Science 277, 1109 (1997)). As β-galactosidase is expressed under the control of the Ptc1 promoter in these cells, β-galactosidase expression can be used to assay the state of Shh pathway activity (FIG. 3A).

p2PTC−/− cells = conditions: even at the highest doses used, 2 d
Source text: as §1

NIH-3T3 cells = conditions: data not shown
Hedgehog signaling = Hedgehog signaling assay in Drosophila c1-8 cells; assay type: cell-based; conditions: not shown
Source text: Cellular responses to the Hh signal are controlled by two multi-pass transmembrane proteins, Smo and Ptc1, predicted to have seven and twelve transmembrane spans, respectively. Smo is related to the Frizzled family of Wnt receptors and more distantly to the secretin family of G protein-coupled receptors (M. R. Barnes, D. M. Duckworth, L. J. Beeley, Trends Pharmacol Sci 19, 399 (1998)).

[3] = nude mice, once daily intraperitoneal, four days, one mouse per treatment

forskolin was tested, and the “induction of reporter by ShhNp” value (Shh pathway) was “prevented induction”.

With “3-keto, N-aminoethyl aminocaproyl dihydrocinnamoyl cyclopamine [KAAD cyclopamine]” the “blocking of pathway activation by tumor-derived / constitutively activated Smo” value (activated Smo (SmoA1)) was “can block”, the “concentration suppressing SmoA1-induced reporter activity relative to that required for suppression of ShhNp signaling” value (activated Smo (SmoA1); higher, FIG. 4A) was “approximately 10 fold” and the “differentiation status of tumors” value [1] was “greater degree of differentiation”. The “decrease of tumor size” value [1, 3] was 19%, the Ki-67 proliferation rate [1] was 12% and the “potency in suppression of ShhNp-induced pathway activity relative to cyclopamine” value (Sonic hedgehog signaling) was 10-20 fold. For the same molecule, the “blocking/suppression of pathway activity in cells lacking Ptc1 function” value [2] was “can block”, the “potency relative to cyclopamine in p2PTC−/− cells” value ([2]; FIG. 4B, 2 d) was “higher potency” and the “minimum normalized β-galactosidase activity” value ([2]; p2PTC−/− cells, 2 d, normalized to cell mass, set to 0) was 191. For the same molecule, the “Maximum normalized β-galactosidase activity” value ([2]; p2PTC−/− cells, 2 d, normalized to cell mass, set to 1) was 1103 and the “Significant toxicity (microscopically visible cell death, or decrease in Cell Titer reading)” value (p2PTC−/− cells) was “not observed”.

With `CC1=C2C[C@H]3[C@@H](CC=C4C[C@@H](O)CC[C@@]43C)[C@@H]2CC[C@]12O[C@@H]1C[C@H](C)CN[C@H]1[C@H]2C` [Compound 1, cyclopamine] the “differentiation status of tumors” value [1] was “greater degree of differentiation”, the “decrease of tumor size” value [1, 3] was 0.14% and the Ki-67 proliferation rate [1] was 16%. For the same molecule, the β-galactosidase expression [2] was “significantly suppressed”, the “Significant toxicity (microscopically visible cell death, or decrease in Cell Titer reading)” value (p2PTC−/− cells) was “not observed” and the “concentration range in which toxic effects emerge” value (NIH-3T3 cells) was 10 to 40 µM. The “sensitivity of Hedgehog signaling assay to the substance” value (Hedgehog signaling) was “resistant”.

`C[C@H]1CC[C@]2(NC1)O[C@H]1C[C@H]3[C@@H]4CC[C@H]5C[C@@H](O)CC[C@]5(C)[C@H]4CC[C@]3(C)[C@H]1[C@@H]2C` [tomatidine] was tested, and the “tumor growth over the treatment period” value [1, 3] was 17% and the Ki-67 proliferation rate [1] was 30%.
